Molecules are shown by their SMILES. Some results are limits rather than exact numbers.

For the test, the target named is T1, IKZF2 (Helios) (Homo sapiens, UniProt Q96SW2+Q9UKS7).
T1 construct: CRISPR/Cas-mediated insertion of the HiBiT peptide tag (Promega™) to the N-terminus of the IKZF2 gene locus; endogenous in cells; host or cells: MOLT4 cells, CRISPR/Cas knock-in of HiBiT at the endogenous IKZF2 locus
T1 sequence (Q9UKS7 whole entry): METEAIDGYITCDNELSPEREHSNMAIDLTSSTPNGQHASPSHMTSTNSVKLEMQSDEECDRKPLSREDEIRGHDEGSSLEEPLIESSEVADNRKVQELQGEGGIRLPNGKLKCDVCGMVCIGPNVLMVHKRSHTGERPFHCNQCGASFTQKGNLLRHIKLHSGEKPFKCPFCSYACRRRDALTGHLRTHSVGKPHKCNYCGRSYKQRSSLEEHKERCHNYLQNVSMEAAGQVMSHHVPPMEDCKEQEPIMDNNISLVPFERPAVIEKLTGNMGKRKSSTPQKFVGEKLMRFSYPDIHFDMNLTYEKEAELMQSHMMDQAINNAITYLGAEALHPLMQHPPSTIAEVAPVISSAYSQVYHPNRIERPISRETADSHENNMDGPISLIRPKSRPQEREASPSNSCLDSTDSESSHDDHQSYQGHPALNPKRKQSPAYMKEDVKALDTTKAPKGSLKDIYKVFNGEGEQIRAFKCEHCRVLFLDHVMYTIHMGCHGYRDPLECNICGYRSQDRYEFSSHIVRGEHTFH
T1 sequence (Q96SW2 whole entry): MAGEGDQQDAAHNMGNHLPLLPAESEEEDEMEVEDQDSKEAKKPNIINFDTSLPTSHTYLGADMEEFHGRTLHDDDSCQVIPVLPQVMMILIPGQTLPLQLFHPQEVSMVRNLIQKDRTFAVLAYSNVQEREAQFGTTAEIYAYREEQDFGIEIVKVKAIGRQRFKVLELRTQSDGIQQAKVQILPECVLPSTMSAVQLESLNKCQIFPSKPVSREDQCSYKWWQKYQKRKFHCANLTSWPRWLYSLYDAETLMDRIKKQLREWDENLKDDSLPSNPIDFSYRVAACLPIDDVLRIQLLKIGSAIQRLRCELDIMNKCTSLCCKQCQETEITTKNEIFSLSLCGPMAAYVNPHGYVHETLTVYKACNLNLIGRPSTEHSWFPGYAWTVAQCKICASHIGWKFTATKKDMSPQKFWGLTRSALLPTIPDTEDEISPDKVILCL
T1 sequence (Q16531 whole entry partner): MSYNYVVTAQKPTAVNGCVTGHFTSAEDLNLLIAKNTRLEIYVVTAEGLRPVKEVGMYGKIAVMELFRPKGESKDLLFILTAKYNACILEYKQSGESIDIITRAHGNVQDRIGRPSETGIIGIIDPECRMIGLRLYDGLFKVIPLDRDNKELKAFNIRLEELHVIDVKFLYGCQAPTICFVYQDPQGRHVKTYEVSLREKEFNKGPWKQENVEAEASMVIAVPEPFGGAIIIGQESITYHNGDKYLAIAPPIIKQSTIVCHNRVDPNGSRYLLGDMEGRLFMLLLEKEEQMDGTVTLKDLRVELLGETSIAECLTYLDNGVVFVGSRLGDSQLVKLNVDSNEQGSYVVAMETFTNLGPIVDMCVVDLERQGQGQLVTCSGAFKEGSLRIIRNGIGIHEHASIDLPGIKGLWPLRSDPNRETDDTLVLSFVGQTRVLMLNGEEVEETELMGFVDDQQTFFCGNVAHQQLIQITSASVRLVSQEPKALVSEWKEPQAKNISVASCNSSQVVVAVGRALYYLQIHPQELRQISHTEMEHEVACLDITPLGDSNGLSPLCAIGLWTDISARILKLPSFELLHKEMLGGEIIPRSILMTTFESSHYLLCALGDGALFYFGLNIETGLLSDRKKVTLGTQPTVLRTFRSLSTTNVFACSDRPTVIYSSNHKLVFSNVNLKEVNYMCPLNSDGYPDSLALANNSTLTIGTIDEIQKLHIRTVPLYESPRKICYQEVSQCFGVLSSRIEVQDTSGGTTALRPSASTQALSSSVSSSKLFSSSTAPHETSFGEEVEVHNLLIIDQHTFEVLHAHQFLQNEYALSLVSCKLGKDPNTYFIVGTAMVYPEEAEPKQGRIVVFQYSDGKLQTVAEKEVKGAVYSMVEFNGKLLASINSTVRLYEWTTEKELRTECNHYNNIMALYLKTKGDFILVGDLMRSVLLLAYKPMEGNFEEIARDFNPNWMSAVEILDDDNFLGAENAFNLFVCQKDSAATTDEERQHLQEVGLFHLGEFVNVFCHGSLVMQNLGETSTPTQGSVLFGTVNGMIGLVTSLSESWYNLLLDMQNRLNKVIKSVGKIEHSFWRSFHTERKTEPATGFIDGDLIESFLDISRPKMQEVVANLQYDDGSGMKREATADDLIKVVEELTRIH
Put plainly: HiBiT protocol: HiBiT-Helios degradation in MOLT4 cells (Example 63). As to conditions: after 6 hours of treatment, 13-point 10 μM to 0.00026 μM. The class given is cell-based. Here is the method: The HiBiT protein tagging system was applied to MOLT4 cells via a CRISPR/Cas-mediated insertion of the HiBiT peptide tag (Promega™) to the N-terminus of the IKZF2 gene locus (Neon™ Transfection System). The resulting HiBiT-Helios stable cell line was treated with the following inventive compounds in triplicates following a 13-point concentration scheme ranging from 10 μM to 0.00026 μM. At the indicated timepoints, the Nano-Glo® HiBiT Lytic Detection system (Promega™) was utilized for detecting bioluminescence of the HiBiT tag in treated cells: the abundance of the tag is proportionate to the level of luminescence. Following normalization to DMSO, dose-response curves were plotted (GraphPad Prism) to determine the concentration points at which 50% of HiBiT-Helios degradation was achieved by each compound. The extent of degradation (range of luminescence) from the highest to lowest concentration points was calculated to determine Dmax.
(In general: With HiBiT, luminescence reflects the tagged protein that the partner subunit can reach.)
The DC50 is the concentration at which degradation of the target reaches its halfway point. A lower DC50 goes with degradation at low concentration. On to `O=C1CCC(N2Cc3cc(C4CCN(Cc5ccc6c(c5)C(=O)N(c5ccccc5)CCO6)CC4)ccc3C2=O)C(=O)N1` (centres unmarked) [Compound 1, 3-(1-oxo-5-(1-((5-oxo-4-phenyl-2,3,4,5-tetrahydrobenzo[f][1,4]oxazepin-7-yl)methyl)piperidin-4-yl)isoindolin-2-yl)piperidine-2,6-dione], for which the half-maximal degradation concentration (DC50) is < 5 nM.
Next, `O=C1CCC(N2Cc3cc(C4CCN(Cc5ccc6c(c5)C(=O)N(c5ccccn5)CCO6)CC4)ccc3C2=O)C(=O)N1` (centres unmarked) [Compound 3]: 5 to 25 nM; `O=C1CCC(N2Cc3cc(C4CCN(Cc5ccc6c(c5)C(=O)N(c5cccc(F)c5)CCO6)CC4)ccc3C2=O)C(=O)N1` (centres unmarked) [Compound 5]: < 5 nM.
As for `O=C1CCC(N2Cc3cc(C4CCN(Cc5ccc6c(c5)C(=O)N(c5cccc(Cl)c5)CCO6)CC4)ccc3C2=O)C(=O)N1` (centres unmarked) [Compound 6], the DC50 was < 5 nM.
`O=C1CCC(N2Cc3cc(C4CCN(Cc5cc6n(n5)CCN(c5ccccc5)C6=O)CC4)ccc3C2=O)C(=O)N1` (centres unmarked) [Compound 8, 3-(1-oxo-5-(1-((4-oxo-5-phenyl-4,5,6,7-tetrahydropyrazolo[1,5a]pyrazin-2-yl)methyl)piperidin-4-yl)isoindolin-2-yl)piperidine-2,6-dione]: the DC50 fell in the range of 5 to 25 nM.
In turn, `Cn1cccc(Nc2cccc(CN3CCC(c4ccc5c(c4)CN(C4CCC(=O)NC4=O)C5=O)CC3)c2)c1=O` (centres unmarked) [Compound 12, 3-(5-(1-(3-((1-Methyl-2-oxo-1,2-dihydropyridin-3-yl)amino)benzyl)piperidin-4-yl)-1-oxoisoindolin-2-yl)piperidine-2,6-dione] registered a DC50 of 5 to 25 nM.
Next, `O=C1CCC(N2Cc3cc(C4CCN(Cc5ccc6c(c5)N(c5ccccc5)C(=O)C6)CC4)ccc3C2=O)C(=O)N1` (centres unmarked) [Compound 18, 3-[1-oxo-5-[1-[(2-oxo-1-phenyl-indolin-6-yl)methyl]-4-piperidyl]isoindolin-2-yl]piperidine-2,6-dione]: < 5 nM; `O=C1CCC(N2Cc3cc(C4CCN(Cc5ccc6c(c5)N(c5ccccc5)C(=O)CCC6)CC4)ccc3C2=O)C(=O)N1` (centres unmarked) [Compound 22]: 5 to 25 nM.
Next, `O=C1CCC(N2Cc3cc(C4CCN(Cc5ccc6ncn(-c7ccccc7F)c(=O)c6c5)CC4)ccc3C2=O)C(=O)N1` (centres unmarked) [Compound 27]: 5 to 25 nM.
Next, `O=C1CCC(N2Cc3cc(C4CCN(Cc5ccc6ncn(-c7ccccn7)c(=O)c6c5)CC4)ccc3C2=O)C(=O)N1` (centres unmarked) [Compound 31, 3-(1-oxo-5-(1-((4-oxo-3-(pyridin-2-yl)-3,4-dihydroquinazolin-6-yl)methyl)piperidin-4-yl)isoindolin-2-yl)piperidine-2,6-dione]: 5 to 25 nM; `O=C1CCC(N2Cc3cc(C4CCN(Cc5ccc6cc(-c7ccccc7)nn6c5)CC4)ccc3C2=O)C(=O)N1` (centres unmarked) [Compound 38, 3-[1-oxo-5-[1-[(2-phenylpyrazolo[1,5-a]pyridin-6-yl)methyl]-4-piperidyl]isoindolin-2-yl]piperidine-2,6-dione]: 5 to 25 nM; `O=C1CCC(N2Cc3cc(C4CCN(Cc5ccc6ccc(-c7ccccc7)nc6c5)CC4)ccc3C2=O)C(=O)N1` (centres unmarked) [Compound 41]: 25 to 100 nM.
As for `O=C1CCC(N2Cc3cc(C4CCN(Cc5ccc6cn(-c7ccccc7)nc6c5)CC4)ccc3C2=O)C(=O)N1` (centres unmarked) [Compound 42], the DC50 was < 5 nM.
Next, `O=C1CCC(N2Cc3cc(C4CCN(Cc5ccc6cnn(-c7ccccn7)c(=O)c6c5)CC4)ccc3C2=O)C(=O)N1` (centres unmarked) [Compound 43, 3-[1-oxo-5-[1-[[4-oxo-3-(2-pyridyl)phthalazin-6-yl]methyl]-4-piperidyl]isoindolin-2-yl]piperidine-2,6-dione]: 5 to 25 nM.
The figure for `O=C1CCC(N2Cc3cc(C4CCN(Cc5ccc6ncn(-c7ccccc7)c(=O)c6c5)CC4)ccc3C2=O)C(=O)N1` (centres unmarked) [Compound 44] is 5 to 25 nM; for `O=C1CCC(N2Cc3cc(C4CCN(Cc5ccc6c(c5)C(=O)N(c5ccccc5F)CCO6)CC4)ccc3C2=O)C(=O)N1` (centres unmarked) [Compound 45] it is < 5 nM.
The figure for `O=C1CCC(N2Cc3cc(C4CCN(Cc5ccc6c(c5)C(=O)N(c5ncccn5)CCO6)CC4)ccc3C2=O)C(=O)N1` (centres unmarked) [Compound 46] is 5 to 25 nM; for `O=C1CCC(N2Cc3cc(C4CCN(Cc5ccc6c(c5)C(=O)N(c5ccncn5)CCO6)CC4)ccc3C2=O)C(=O)N1` (centres unmarked) [Compound 47] it is 5 to 25 nM.
`O=C1CCC(N2Cc3cc(C4CCN(Cc5ccc6c(c5)C(=O)N(c5ccsn5)CCO6)CC4)ccc3C2=O)C(=O)N1` (centres unmarked) [Compound 48]: the DC50 is 5 to 25 nM.
In the case of `O=C1CCC(N2Cc3cc(C4CCN(Cc5ccc6c(c5)C(=O)N(c5ccns5)CCO6)CC4)ccc3C2=O)C(=O)N1` (centres unmarked) [Compound 49], the DC50 is < 5 nM.
The figure for `O=C1CCC(N2Cc3cc(C4CCN(Cc5ccc6ccn(-c7ccccn7)c(=O)c6c5)CC4)ccc3C2=O)C(=O)N1` (centres unmarked) [Compound 57] is < 5 nM.
Next, `O=C1CCC(N2Cc3cc(C4CCN(Cc5ccc6ncn(-c7ncccc7F)c(=O)c6c5)CC4)ccc3C2=O)C(=O)N1` (centres unmarked) [Compound 58]: < 5 nM.
Next, `O=C1CCC(N2Cc3cc(C4CCN(Cc5ccc6ncn(-c7ccns7)c(=O)c6c5)CC4)ccc3C2=O)C(=O)N1` (centres unmarked) [Compound 59]: 5 to 25 nM.

These data come from patent publication US20240034723A1, “PIPERIDINYL SMALL MOLECULE DEGRADERS OF HELIOS AND METHODS OF USE” (DANA-FARBER CANCER INSTITUTE, INC., priority 2020, published 2024).
